Publication PMC8571282 (Nature Communications, 2021)
Several values for one entry are separate records, joined by “and”; a condition that tells them apart may be missing. Equal entries are not always repeated. Where two headings read alike, the source gives them in different places.

Assays:
[1] = Cytotoxicity assay (PrestoBlue), “M2” HAE; conditions: human, % cell viability, M2 HAE, 72 h
[2] = in vitro; conditions: human, % cell viability, HEp-2, 33.333 µM, 72 h
[3] = test system: SARS-CoV-2 gamma isolate (BZ/2021, lineage P.1); test: microbe, parasite or virus in culture; assay type: cell-based; conditions: Severe acute respiratory syndrome coronavirus 2
[4] = cited from earlier work
[5] = design: method as in Mackman et al 2021 (JMC 2021, 64(8), 5001-5017); conditions: rats, ref Mackman et al 2021 (JMC 2021, 64(8), 5001-5017); cited from earlier work
[6] = Cytotoxicity assay (PrestoBlue), BHK-21; conditions: hamster, BHK-21 cells
[7] = test system: SARS-CoV-2 BZ/2021 (γ, lineage P.1); test: microbe, parasite or virus in culture; assay type: cell-based; conditions: Severe acute respiratory syndrome coronavirus 2, Vero C1008; BZ/2021, VeroE6, mean n=3
[8] = test system: “M6” primary HAE cells; test: Cytotoxicity assay (PrestoBlue), “M6” HAE; conditions: M6 HAE, 72 h
[9] = Cytotoxicity assay (PrestoBlue), “M6” HAE; conditions: human
[10] = test system: well-differentiated primary human airway epithelium cultures; assay type: cell-based
[11] = Cytotoxicity assay (PrestoBlue), VeroE6; conditions: African green monkey, VeroE6 cells
[12] = test system: SARS-CoV-2 WA1/2020 (lineage A); test: microbe, parasite or virus in culture; assay type: cell-based; conditions: for Virus yield reduction: vehicle = 0
[13] = Cytotoxicity assay (PrestoBlue), HEp-2; conditions: human, HEp-2 cells
[14] = in vitro; conditions: human
[15] = design: method as in Mackman et al 2021 (JMC 2021, 64(8), 5001-5017); conditions: cynomolgus macaques, ref Mackman et al 2021 (JMC 2021, 64(8), 5001-5017); cited from earlier work
[16] = in vitro; conditions: human; remark: listed apart in the source
[17] = test system: SARS-CoV-2 SA/2020 (β, lineage B.1.351); test: microbe, parasite or virus in culture; assay type: cell-based; conditions: Severe acute respiratory syndrome coronavirus 2, Vero C1008; SA/2020, VeroE6, mean n=3
[18] = Single-dose plasma pharmacokinetics in ferrets; conditions: ferret; for plasma concentration of GS-621763: GS-621763 PO 30 mg/kg, 30 mg/kg
[19] = Cytotoxicity assay (PrestoBlue), “F2” HAE; conditions: human
[20] = test system: SARS-CoV-2 CA/2020 (α, lineage B.1.1.7); test: microbe, parasite or virus in culture; assay type: cell-based
[21] = in vitro; conditions: human, % cell viability, 72 h
[22] = test system: SARS-CoV-2-Nluc (WA1/2020-nano luciferase); test: microbe, parasite or virus in culture; assay type: cell-based; conditions: for A549-hACE2 SARS-CoV-2 Nluc (EC50 determination), normalized signal: replicate values of the experiments
[23] = test system: SARS-CoV-2 (WA1/2020 and VOC α, β, γ); test: microbe, parasite or virus in culture; assay type: cell-based; conditions: Severe acute respiratory syndrome coronavirus 2, Vero C1008; read-out: Half-maximal effective concentrations (EC50), range
[24] = Cytotoxicity assay (PrestoBlue), HCT-8; conditions: human, HCT-8 cells
[25] = test system: “F3” primary HAE cells; test: Cytotoxicity assay (PrestoBlue), “F3” HAE; conditions: 72 h; for % cell viability: F3 HAE
[26] = Cytotoxicity assay (PrestoBlue), “F3” HAE; conditions: human

CC(C)C(=O)OCC1OC(C#N)(c2ccc3c(N)ncnn23)C(OC(=O)C(C)C)C1OC(=O)C(C)C (stereo not shown) [GS-621763]
viability at 72 h, 100 µM ([1]; 100 µM): 0% | viability at 72 h, 1.235 µM ([1]; male, 1.235 µM): 107% | viability at 72 h, 3.704 µM ([1]; male, 3.704 µM): 117% | viability at 72 h, 33.333 µM ([1]; male, 33.333 µM): 89% | viability at 72 h, 33.333 µM [2]: 112% | EC50 [3]: 3.01 µM | increase of oral F compared to GS-441524 ([4]; rats and cynomolgus macaques, ref Mackman et al 2021): greater than 5 fold | oral bioavailability (in words) ([4]; two relevant animal species including non-human primates): high oral bioavailability | oral F [5]: 57% | CC50 at 72 h [6]: > 100 µM | viability at 72 h, 0.046 µM ([6]; % cell viability, BHK-21, 0.046 µM, 72 h): 76% | viability at 72 h, 1.235 µM ([6]; % cell viability, BHK-21, 1.235 µM, 72 h): 90% | viability at 72 h, 3.704 µM ([6]; % cell viability, BHK-21, 3.704 µM, 72 h): 90% | viability at 72 h, 33.333 µM ([6]; % cell viability, BHK-21, 33.333 µM, 72 h): 91% | viability at 72 h, 100 µM ([6]; % cell viability, BHK-21, 100 µM, 72 h): 85% | EC50 [7]: 0.22 µM | % cell viability ([8]; 1.235 µM): 96% | % cell viability ([8]; 3.704 µM): 70% and 86% | % cell viability ([8]; 33.333 µM): 99% | % cell viability ([8]; 100 µM): 46% and 45% | CC50 at 72 h [9]: 92.3 µM | viability at 72 h, 100 µM ([9]; % cell viability, M6 HAE, 100 µM, 72 h): 42% | viability at 72 h, 1.235 µM ([9]; male, % cell viability, M6 HAE, 1.235 µM, 72 h): 97% | viability at 72 h, 33.333 µM ([9]; male, % cell viability, M6 HAE, 33.333 µM, 72 h): 94% | basolateral drug concentration at which epithelium integrity (TEER) was fully preserved [10]: ≥ 3 µM | CC50 at 72 h [11]: > 100 µM | viability at 72 h, 0.046 µM ([11]; % cell viability, VeroE6, 0.046 µM, 72 h): 62% | viability at 72 h, 1.235 µM ([11]; % cell viability, VeroE6, 1.235 µM, 72 h): 90% | viability at 72 h, 3.704 µM ([11]; % cell viability, VeroE6, 3.704 µM, 72 h): 95% | viability at 72 h, 33.333 µM ([11]; % cell viability, VeroE6, 33.333 µM, 72 h): 105% | EC50 ([12]; Severe acute respiratory syndrome coronavirus 2, Vero C1008, WA1/2020, VeroE6, mean n=3): 0.73 µM | Virus yield reduction ([12]; WA1/2020, VeroE6, 0.617284 µM): -0.1154 | Virus yield reduction ([12]; WA1/2020, VeroE6, 1.85185 µM): -1.903 | viability at 72 h, 0.046 µM ([13]; % cell viability, HEp-2, 0.046 µM, 72 h): 53% | viability at 72 h, 1.235 µM ([13]; % cell viability, HEp-2, 1.235 µM, 72 h): 95% | viability at 72 h, 3.704 µM ([13]; % cell viability, HEp-2, 3.704 µM, 72 h): 104% | viability at 72 h, 33.333 µM ([13]; % cell viability, HEp-2, 33.333 µM, 72 h): 111% | CC50 at 72 h ([13]; CC50, HEp-2, 72 h): 79.4 µM | viability at 72 h, 0.046 µM ([14]; female, % cell viability): 84% | viability at 72 h, 3.704 µM ([14]; female, % cell viability): 120% | viability at 72 h, […] ([14]; female, % cell viability): 95% | viability at […] ([14]; female, % cell viability): 101% | viability at 1.235 µM ([14]; female, % cell viability, DF2 HAE, 1.235 µM, 72 h): 103% | viability at 3.704 µM ([14]; female, % cell viability, DF2 HAE, 3.704 µM, 72 h): 116% | viability at 33.333 µM ([14]; female, % cell viability, DF2 HAE, 33.333 µM, 72 h): 112% | CC50 at 72 h [14]: 86 µM | viability at 72 h, 100 µM ([14]; % cell viability): 4% | oral F [15]: 28% | CC50 at 48 h [16]: > 47 µM | EC50 [17]: 0.11 µM | oral bioavailability (in words) [18]: excellent oral bioavailability | plasma concentration of GS-621763 ([18]; 0.25 h): 9.27 and 11.5 and 13.7 | plasma concentration of GS-621763 ([18]; 1 h): 5.98 and 3.18 and 4.36 | plasma GS-621763 (intact prodrug) transiently observed ([18]; GS-621763 p.o. 30 mg/kg, first two hours): approximately 10 nM | GS-441524 in blood relative to intact prodrug ([18]; after oral administration of GS-621763): more than three orders of magnitude higher | viability at 72 h, 1.235 µM ([19]; female, % cell viability, F2 HAE, 1.235 µM): 100% | viability at 72 h, 3.704 µM ([19]; female, % cell viability, F2 HAE, 3.704 µM): 117% | viability at 72 h, 33.333 µM ([19]; female, % cell viability, F2 HAE, 33.333 µM): 82% | viability at 72 h, 0.046 µM ([19]; female, “F2” primary human airway epithelial (HAE) cells, % cell viability, F2 HAE, 0.046 µM): 86% | viability at 72 h, 100 µM ([19]; % cell viability, F2 HAE, 100 µM): 1% | CC50 at 72 h ([19]; CC50, “F2” HAE): 43.8 µM | reduction in titer in vitro (to the limit of detection) [20]: ~ 1 log | EC50 ([20]; Severe acute respiratory syndrome coronavirus 2, Vero C1008, CA/2020, VeroE6, mean n=3): 0.21 µM | viability at 72 h, 1.235 µM ([21]; HCT-8, 1.235 µM): 115% | viability at 72 h, 3.704 µM ([21]; HCT-8, 3.704 µM): 114% | viability at 72 h, 33.333 µM ([21]; HCT-8, 33.333 µM): 106% | A549-hACE2 SARS-CoV-2 Nluc (EC50 determination), normalized signal ([22]; Conc 0.023 µM): 100.31 and 91.27 and 105.35 and 111.17 and 106.25 and 121.34 and 128.97 and 56.85 | A549-hACE2 SARS-CoV-2 Nluc (EC50 determination), normalized signal ([22]; Conc 0.069 µM): 81.07 and 111.32 and 107.14 and 109.98 and 64.03 and 99.75 and 127.29 and 97.36 | A549-hACE2 SARS-CoV-2 Nluc (EC50 determination), normalized signal ([22]; Conc 0.206 µM): 99.03 and 101.58 and 96.21 and 106.69 and 74.78 and 94.61 and 130.86 and 135.24 | A549-hACE2 SARS-CoV-2 Nluc (EC50 determination), normalized signal ([22]; Conc 0.617 µM): 93.09 and 77.54 and 84.50 and 82.94 and 7.92 and 26.38 and 11.95 and 19.80 | A549-hACE2 SARS-CoV-2 Nluc (EC50 determination), normalized signal ([22]; Conc 1.852 µM): 11.60 and 8.15 and 9.31 and 12.89 and 0.89 and 0.94 and 1.04 and 0.76 | A549-hACE2 SARS-CoV-2 Nluc (EC50 determination), normalized signal ([22]; Conc 5.556 µM): 0.61 and 1.05 and 0.64 and 0.93 and 0.44 (2×) and 0.49 and 0.36 | A549-hACE2 SARS-CoV-2 Nluc (EC50 determination), normalized signal ([22]; Conc 16.667 µM): 0.46 and 0.65 and 0.58 and 0.40 and 0.32 (2×) and 0.31 and 0.28 | A549-hACE2 SARS-CoV-2 Nluc (EC50 determination), normalized signal ([22]; Conc 50.000 µM): 0.15 (3×) and 0.14 and 0.29 (2×) and 0.24 and 0.26 | EC50 ([22]; Severe acute respiratory syndrome coronavirus 2, WA1/2020-nano luciferase, A549-ACE2, mean ± SD): 0.72 µM | EC50 [23]: 0.11 to 0.73 µM | viability at 72 h, 0.046 µM ([24]; % cell viability, HCT-8, 0.046 µM, 72 h): 78% | viability at 72 h, 3.704 µM ([24]; % cell viability, HCT-8, 3.704 µM, 72 h): 104% | viability at 72 h, 33.333 µM ([24]; % cell viability, HCT-8, 33.333 µM, 72 h): 99% | viability at 72 h, 100 µM ([24]; % cell viability, HCT-8, 100 µM, 72 h): 2% | CC50 at 72 h ([24]; CC50, HCT-8, 72 h): 74.6 µM | % cell viability ([25]; 0.046 µM): 79% | % cell viability ([25]; 3.704 µM): 115% | % cell viability ([25]; 33.333 µM): 86% | CC50 ([25]; “F3” HAE): 43.8 µM | viability at 72 h, 1.235 µM ([26]; female, % cell viability, F3 HAE, 1.235 µM): 121% | viability at 72 h, 3.704 µM ([26]; female, % cell viability, F3 HAE, 3.704 µM): 111% | viability at 72 h, 33.333 µM ([26]; female, % cell viability, F3 HAE, 33.333 µM): 81% | viability at 72 h, 0.046 µM ([26]; female, “F3” primary human airway epithelial (HAE) cells, % cell viability, F3 HAE, 0.046 µM): 83% | viability at 72 h, 100 µM ([26]; % cell viability, F3 HAE, 100 µM): 1% | CC50 at 72 h ([26]; CC50, “F3” HAE): 43.8 µM
